Laboratory results taken from patent US6627648B1, “Pharmaceutical compositions and methods for use” (Targacept, Inc., priority 1999, dated 2003).

Assays:
[1] = molecular target: T1, muscle-type nicotinic acetylcholine receptors (Homo sapiens, UniProt P02708+P07510+Q07001); test: Determination of interaction with muscle receptors; assay type: cell-based; details: maximal activation as percentage of maximal activation induced by (S)-(-)-nicotine; for Emax: read-out: effect at muscle sites (Emax)
T1 construct: endogenous in cells; host or cells: TE671/RD (own knowledge of the cited US 5,597,919)
Protocol: (§1) The determination of the interaction of the compounds with muscle receptors was carried out in accordance with the techniques described in U.S. Pat. No. 5,597,919 to Dull et al. The maximal activation for individual compounds (Emax) was determined as a percentage of the maximal activation induced by (S)-(−)-nicotine. Reported Emax values represent the amount released relative to (S)-(−)-nicotine on a percentage basis. […] Such preferable compounds have the capability to activate human CNS receptors without activating muscle-type nicotinic acetylcholine receptors. Thus, there is provided a therapeutic window for utilization in the treatment of CNS disorders. […] The compounds begin to cause muscle effects only when employed in amounts of many times those required to activate dopamine release.

[2] = test system: ganglia-type nicotinic acetylcholine receptors; test: Determination of interaction with ganglion receptors; assay type: cell-based; details: maximal activation as percentage of maximal activation induced by (S)-(-)-nicotine
Protocol: as §1, with “ganglionic” for “muscle”, “ganglia-type” for “muscle-type”, “cause” for “cause muscle”, “effects at ganglia” for “effects”

CNS nicotinic receptors = CNS nicotinic receptors (Rattus norvegicus, UniProt P09483+P12390); test: Determination of binding to relevant receptor sites; details: inhibition constants calculated from IC50 values by the method of Cheng et al.
Protocol: Binding of the compounds to relevant receptor sites was determined in accordance with the techniques described in U.S. Pat. No. 5,597,919 to Dull et al. Inhibition constants (Ki values), reported in nM, were calculated from the IC50 values using the method of Cheng et al., Biochem, Pharmacol. 22:3099 (1973).

T1 sequence (P02708 21-457): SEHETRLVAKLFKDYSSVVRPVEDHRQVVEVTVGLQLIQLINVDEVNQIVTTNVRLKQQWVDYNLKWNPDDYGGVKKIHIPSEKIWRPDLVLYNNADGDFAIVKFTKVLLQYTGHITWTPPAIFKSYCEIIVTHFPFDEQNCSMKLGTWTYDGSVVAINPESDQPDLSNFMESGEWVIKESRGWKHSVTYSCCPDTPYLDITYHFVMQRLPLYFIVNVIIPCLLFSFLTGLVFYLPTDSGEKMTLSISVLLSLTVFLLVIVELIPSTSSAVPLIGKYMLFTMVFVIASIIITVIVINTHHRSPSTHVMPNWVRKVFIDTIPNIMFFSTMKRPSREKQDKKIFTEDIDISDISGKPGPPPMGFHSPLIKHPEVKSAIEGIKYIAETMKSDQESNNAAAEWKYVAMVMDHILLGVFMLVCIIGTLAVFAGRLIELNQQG
T1 sequence (P11230 24-501 partner): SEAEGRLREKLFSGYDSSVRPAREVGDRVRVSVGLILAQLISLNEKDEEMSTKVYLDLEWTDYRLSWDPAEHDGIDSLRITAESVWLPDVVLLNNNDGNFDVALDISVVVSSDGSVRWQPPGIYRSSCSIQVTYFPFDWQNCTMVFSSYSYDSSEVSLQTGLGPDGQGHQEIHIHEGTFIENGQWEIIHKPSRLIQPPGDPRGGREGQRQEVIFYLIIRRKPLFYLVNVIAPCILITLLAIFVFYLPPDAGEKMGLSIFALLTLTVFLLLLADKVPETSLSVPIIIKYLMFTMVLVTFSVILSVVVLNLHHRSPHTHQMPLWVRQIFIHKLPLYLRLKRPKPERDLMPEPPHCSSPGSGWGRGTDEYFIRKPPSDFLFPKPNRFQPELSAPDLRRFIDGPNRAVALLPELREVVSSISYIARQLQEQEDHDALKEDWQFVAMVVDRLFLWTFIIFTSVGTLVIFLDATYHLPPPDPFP
T1 sequence (Q07001 22-517): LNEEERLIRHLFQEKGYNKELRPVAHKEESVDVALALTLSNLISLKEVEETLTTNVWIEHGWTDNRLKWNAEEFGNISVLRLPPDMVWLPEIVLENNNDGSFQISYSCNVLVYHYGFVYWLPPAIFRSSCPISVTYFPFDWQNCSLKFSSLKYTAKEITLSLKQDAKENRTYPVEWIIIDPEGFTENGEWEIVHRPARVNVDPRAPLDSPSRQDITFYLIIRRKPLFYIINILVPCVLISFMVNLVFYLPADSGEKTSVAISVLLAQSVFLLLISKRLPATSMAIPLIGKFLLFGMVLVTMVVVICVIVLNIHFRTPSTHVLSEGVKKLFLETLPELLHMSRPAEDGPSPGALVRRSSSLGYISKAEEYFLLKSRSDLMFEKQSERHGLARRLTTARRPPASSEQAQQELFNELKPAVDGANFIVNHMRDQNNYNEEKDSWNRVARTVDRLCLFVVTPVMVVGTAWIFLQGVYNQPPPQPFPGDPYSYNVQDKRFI
T1 sequence (P07510 23-517): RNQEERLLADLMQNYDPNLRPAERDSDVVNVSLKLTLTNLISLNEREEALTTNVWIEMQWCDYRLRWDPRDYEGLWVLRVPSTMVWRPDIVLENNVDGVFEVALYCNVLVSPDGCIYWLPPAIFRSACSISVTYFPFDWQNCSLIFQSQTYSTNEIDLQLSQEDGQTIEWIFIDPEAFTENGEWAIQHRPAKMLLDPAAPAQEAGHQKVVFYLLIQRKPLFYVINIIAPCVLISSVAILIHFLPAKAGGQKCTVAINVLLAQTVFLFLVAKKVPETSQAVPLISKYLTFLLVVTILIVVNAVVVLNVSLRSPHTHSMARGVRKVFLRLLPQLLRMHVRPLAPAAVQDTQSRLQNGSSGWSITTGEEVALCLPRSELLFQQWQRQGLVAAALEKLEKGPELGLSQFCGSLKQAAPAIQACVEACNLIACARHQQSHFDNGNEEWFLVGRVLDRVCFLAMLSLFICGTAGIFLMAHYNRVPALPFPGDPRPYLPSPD
Sequence of CNS nicotinic receptors (P09483 31-630): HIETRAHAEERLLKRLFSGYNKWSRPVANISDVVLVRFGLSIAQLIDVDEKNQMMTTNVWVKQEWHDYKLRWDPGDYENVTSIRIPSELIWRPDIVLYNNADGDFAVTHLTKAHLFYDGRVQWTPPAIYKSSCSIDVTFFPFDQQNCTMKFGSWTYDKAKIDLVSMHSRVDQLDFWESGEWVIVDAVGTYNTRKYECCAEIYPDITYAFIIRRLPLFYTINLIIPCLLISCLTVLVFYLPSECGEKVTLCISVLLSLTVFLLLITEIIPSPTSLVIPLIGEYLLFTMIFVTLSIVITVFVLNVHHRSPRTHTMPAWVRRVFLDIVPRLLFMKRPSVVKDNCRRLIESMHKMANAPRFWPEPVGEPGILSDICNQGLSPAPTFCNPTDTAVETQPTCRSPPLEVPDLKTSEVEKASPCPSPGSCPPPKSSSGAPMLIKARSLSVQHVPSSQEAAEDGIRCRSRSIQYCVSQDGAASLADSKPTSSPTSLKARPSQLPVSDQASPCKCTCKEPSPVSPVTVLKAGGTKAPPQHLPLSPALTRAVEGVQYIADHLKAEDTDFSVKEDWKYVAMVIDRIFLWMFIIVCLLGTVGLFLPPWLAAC
Sequence of CNS nicotinic receptors (P12390 25-500): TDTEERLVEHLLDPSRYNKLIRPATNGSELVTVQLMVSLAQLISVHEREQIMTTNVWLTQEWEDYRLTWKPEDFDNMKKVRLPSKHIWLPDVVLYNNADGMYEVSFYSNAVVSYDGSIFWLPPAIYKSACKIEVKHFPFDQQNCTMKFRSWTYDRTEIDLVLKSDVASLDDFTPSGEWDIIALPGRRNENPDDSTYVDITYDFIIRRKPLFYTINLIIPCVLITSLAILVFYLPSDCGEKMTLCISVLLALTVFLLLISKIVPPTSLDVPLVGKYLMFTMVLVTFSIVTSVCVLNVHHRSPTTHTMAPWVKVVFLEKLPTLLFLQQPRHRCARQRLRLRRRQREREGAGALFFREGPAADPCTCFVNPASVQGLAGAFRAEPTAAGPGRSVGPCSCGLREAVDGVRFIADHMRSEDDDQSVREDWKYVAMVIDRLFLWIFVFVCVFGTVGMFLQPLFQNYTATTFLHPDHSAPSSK

With “Methyl(1-methyl-3-(3-pyridyloxy)propyl)amine Hemigalactarate [Example 26]” the “effect at muscle sites (Emax)” value [1] was 16% and the “effect at ganglia sites (Emax)” value [2] was 20%.

With “Dimethyl(3-(3-pyridyloxy)propyl)amine Hemigalactarate [Example 11]” the “effect at muscle sites (Emax)” value [1] was 8% and the “effect at ganglia sites (Emax)” value [2] was 5%.

With “3-(3-Pyridyloxy)propylamine Hemigalactarate [Example 10]” the “effect at muscle sites (Emax)” value [1] was 0% and the “effect at ganglia sites (Emax)” value [2] was 0%.

“Methyl(2-(3-pyridyloxy)ethyl)amine Hemigalactarate [Example 8]” was tested, and the “effect at muscle sites (Emax)” value [1] was 0% and the “effect at ganglia sites (Emax)” value [2] was 0%.

“Methyl(3-(5-isopropoxy-3-pyridyloxy)propyl)amine Monogalactarate [Example 18]” was tested, and the “effect at muscle sites (Emax)” value [1] was 22% and the “effect at ganglia sites (Emax)” value [2] was 0%.

For “(3-(5-Chloro(3-pyridyloxy))propyl)methylamine Hemigalactarate [Example 16]”, the “effect at muscle sites (Emax)” value [1] was 16% and the “effect at ganglia sites (Emax)” value [2] was 7%.

In the case of “3-(5-Chloro-3-pyridyloxy)propylamine Hemigalactarate [Example 15]”, the “effect at muscle sites (Emax)” value [1] is reported as 0% and the “effect at ganglia sites (Emax)” value [2] is reported as 4%.

CNCCCSc1cncc(Br)c1 [Example 6, 3-(5-Bromo-3-pyridylthio))propyl)methylamine Hemigalactarate] showed a Ki (CNS nicotinic receptors) of 40 µM.

For “Cyclopropyl(3-(3-pyridyloxy)propyl)amine Hemigalactarate [Example 25]”, the “effect at muscle sites (Emax)” value [1] was 9% and the “effect at ganglia sites (Emax)” value [2] was 10%.

With “4-(3-Pyridyloxy)butylamine Hemigalactarate [Example 12]” the “effect at muscle sites (Emax)” value [1] was 0% and the “effect at ganglia sites (Emax)” value [2] was 11%.

“Methyl(3-(5-methoxy-3-pyridyloxy)propyl)amine Hemigalactarate [Example 17]” was tested, and the “effect at muscle sites (Emax)” value [1] was 10% and the “effect at ganglia sites (Emax)” value [2] was 5%.

Cl.Cl.c1cncc(OC2CCNCC2)c1 [Example 35, 3-(4-Piperidinyloxy)pyridine dihydrochloride] was tested, and the Emax [1] was 16% and the “effect at ganglia sites (Emax)” value [2] was 9%.

In the case of “Methyl(3-(5-(phenylmethoxy)(3-pyridyloxy))propyl)amine Hemigalactarate [Example 19]”, the “effect at muscle sites (Emax)” value [1] is reported as 1% and the “effect at ganglia sites (Emax)” value [2] is reported as 3%.

In the case of “Ethyl(3-(3-pyridyloxy)propyl)amine Hemigalactarate [Example 22]”, the “effect at muscle sites (Emax)” value [1] is reported as 13% and the “effect at ganglia sites (Emax)” value [2] is reported as 13%.

With “Methyl(3-(6-methyl(3-pyridyloxy))propyl)amine Hemigalactarate [Example 20]” the “effect at muscle sites (Emax)” value [1] was 0%.

With CN(C)CCOc1cccnc1 [Example 9, Dimethyl(2-(3-pyridyloxy)ethylamine Hemigalactarate] the Emax [1] was 0% and the “effect at ganglia sites (Emax)” value [2] was 0%.

With “Methyl(3-(2-methyl(3-pyridyloxy))propyl)amine Hemigalactarate [Example 21]” the “effect at muscle sites (Emax)” value [1] was 0% and the “effect at ganglia sites (Emax)” value [2] was 15%.

With “Methyl(3-(3-nitrophenoxy)propyl)amine Hemigalactarate [Example 28]” the “effect at muscle sites (Emax)” value [1] was 10% and the “effect at ganglia sites (Emax)” value [2] was 9%.

For “(3-(3-Aminophenoxy)propyl)methylamine Hemigalactarate [Example 30]”, the “effect at muscle sites (Emax)” value [1] was 11% and the “effect at ganglia sites (Emax)” value [2] was 5%.
